The numbers were not newly measured in patent EP0396201A1 (priority 1989, dated 1990), which cites them from elsewhere.

In this series the test system is carbonic anhydrase. The settings on record: carbonic anhydrase inhibitor, relative activity.

Turning to `CC(=O)Nc1nnc(S(N)(=O)=O)s1` [Acetazolamide], the “times as active as p-aminobenzenesulfonamide” value was approximately 330.
